The values that follow come from article PMC7655065, “Effect of 3-subsitution of quinolinehydroxamic acids on selectivity of histone deacetylase isoforms” (Journal of Enzyme Inhibition and Medicinal Chemistry, 2020).

Data set [1] has as its system HDAC6. The arrangement: method as in PMID 29304284. Particulars: printed in Figure 2, previously synthesised compound; cited from earlier work.
In data set [2] the target is T1, HDAC6 (Homo sapiens, UniProt Q9UBN7).
T1 construct: EurofinPanlabs (Taipei, Taiwan)
T1 sequence (Q9UBN7 1-1215): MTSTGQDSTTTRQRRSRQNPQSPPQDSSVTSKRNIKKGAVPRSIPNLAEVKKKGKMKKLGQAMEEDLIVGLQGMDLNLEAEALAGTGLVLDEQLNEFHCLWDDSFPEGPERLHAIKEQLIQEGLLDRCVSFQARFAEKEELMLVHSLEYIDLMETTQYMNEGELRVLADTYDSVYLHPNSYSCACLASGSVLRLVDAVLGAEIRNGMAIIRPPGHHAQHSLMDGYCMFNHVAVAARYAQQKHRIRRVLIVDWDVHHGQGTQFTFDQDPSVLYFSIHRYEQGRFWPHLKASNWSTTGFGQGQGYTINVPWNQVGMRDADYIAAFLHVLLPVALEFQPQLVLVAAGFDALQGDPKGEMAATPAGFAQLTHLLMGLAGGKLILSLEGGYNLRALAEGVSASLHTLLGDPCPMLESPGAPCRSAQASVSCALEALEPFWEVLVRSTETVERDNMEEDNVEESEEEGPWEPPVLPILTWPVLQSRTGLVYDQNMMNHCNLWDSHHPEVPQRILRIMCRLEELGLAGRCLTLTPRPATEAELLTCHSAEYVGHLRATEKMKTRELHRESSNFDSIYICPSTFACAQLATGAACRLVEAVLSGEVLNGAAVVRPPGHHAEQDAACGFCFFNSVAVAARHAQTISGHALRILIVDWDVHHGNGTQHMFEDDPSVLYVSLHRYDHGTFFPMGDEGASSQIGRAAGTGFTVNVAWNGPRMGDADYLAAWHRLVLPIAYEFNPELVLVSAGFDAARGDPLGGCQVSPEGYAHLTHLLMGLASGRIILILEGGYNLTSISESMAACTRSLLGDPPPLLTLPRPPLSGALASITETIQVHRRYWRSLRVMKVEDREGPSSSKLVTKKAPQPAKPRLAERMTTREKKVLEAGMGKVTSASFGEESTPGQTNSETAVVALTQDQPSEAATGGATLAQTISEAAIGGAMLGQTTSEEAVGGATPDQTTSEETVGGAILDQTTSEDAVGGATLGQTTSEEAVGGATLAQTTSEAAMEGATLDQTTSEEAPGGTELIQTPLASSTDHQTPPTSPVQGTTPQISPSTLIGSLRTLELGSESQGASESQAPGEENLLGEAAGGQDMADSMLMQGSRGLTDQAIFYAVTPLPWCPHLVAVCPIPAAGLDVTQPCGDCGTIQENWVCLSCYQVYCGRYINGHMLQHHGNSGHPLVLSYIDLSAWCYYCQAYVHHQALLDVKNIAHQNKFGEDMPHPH
The experiment in a line: HDAC biochemical assay (Fluor-de-Lys), HDAC6. Particulars: human recombinant HDAC6.

Another data set deals with T2, HDAC8 (Homo sapiens, UniProt Q9BY41).
T2 construct: EurofinPanlabs (Taipei, Taiwan)
T2 sequence (Q9BY41 1-377): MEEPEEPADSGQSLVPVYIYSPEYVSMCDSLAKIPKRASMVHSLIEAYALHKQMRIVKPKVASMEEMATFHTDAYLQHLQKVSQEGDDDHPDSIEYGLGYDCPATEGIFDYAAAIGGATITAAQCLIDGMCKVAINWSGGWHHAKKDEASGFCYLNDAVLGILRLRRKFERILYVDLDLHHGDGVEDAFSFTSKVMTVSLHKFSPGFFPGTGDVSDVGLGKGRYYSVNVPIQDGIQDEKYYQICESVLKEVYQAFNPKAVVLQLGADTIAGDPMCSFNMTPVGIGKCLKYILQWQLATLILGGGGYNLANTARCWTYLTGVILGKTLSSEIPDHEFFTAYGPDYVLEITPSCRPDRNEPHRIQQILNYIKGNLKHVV
Put plainly: HDAC biochemical assay (Fluor-de-Lys), HDAC8. Particulars: for Selectivity ratio of HDAC8 over HDAC6: IC50 HDAC8 / IC50 HDAC6; for IC50: human recombinant HDAC8.

In data set [3] the test system is A549 cells. The experiment in a line: Sulforhodamine B antiproliferative assay, A549. The format is cell-based. Particulars: Homo sapiens. As to the method:
(§1) All human cancer cells were maintained in RPMI 1640 medium supplemented with 10% FBS and penicillin (100 units/ml)/streptomycin (100 µg/ml)/amphotericin B (0.25 µg/ml). All cells were maintained in humidified air containing 5% CO2 at 37 °C and cultured every 2–3 days. […]
(§2) Cells were seeded at the density of 5000 cells/well into 96-plate overnight. Basal cells were fixed with 10% trichloroacetic acid (TCA) to represent the cell population at the time of compound addition (T0). After additional incubation of DMSO (C) or different doses of test compounds (Tx) for 48 h, cells were fixed with 10% TCA and stained with SRB at 0.4% (w/v) in 1% AcOH. Unbound SRB was washed out using 1% AcOH and SRB bound cells were solubilised with 10 mM Trizma base. The absorbance was read at a wavelength of 515 nm. The 50% growth inhibition (GI50) was calculated by 100 − [(Tx – T0)/(C – T0)] × 100.

For a further data set, the target named is T3, HDAC1 (Homo sapiens, UniProt Q13547).
T3 construct: EurofinPanlabs (Taipei, Taiwan)
The experiment in a line: HDAC biochemical assay (Fluor-de-Lys), HDAC1. Particulars: for Selectivity ratio of HDAC1 over HDAC6: IC50 HDAC1 / IC50 HDAC6; for IC50: human recombinant HDAC1, values > 10 μM estimated from best curve fitting.

Data set [4] deals with HCT116 cells. The experiment in a line: Sulforhodamine B antiproliferative assay, HCT116. The format is cell-based. Particulars: Homo sapiens, HCT-116, SRB, 48 h, values > 10 μM estimated from best curve fitting. As to the method: as §1, §2
The target of a further data set is T4, HDAC2 (Homo sapiens, UniProt Q92769).
T4 construct: EurofinPanlabs (Taipei, Taiwan)
Put plainly: HDAC biochemical assay (Fluor-de-Lys), HDAC2. Particulars: for Selectivity ratio of HDAC2 over HDAC6: IC50 HDAC2 / IC50 HDAC6; for IC50: human recombinant HDAC2, dash = no inhibition or activity that could not be fitted to an IC50 curve.

The test system of data set [5] is A549 cells. The experiment in a line: Western blot analysis of apoptosis and DNA damage markers. The format is cell-based, human. Particulars: A549 cells treated for 48 h; 0.25, 5 and 10 µM. Here is the method:
buffer (20 mMTris-HCl pH 7.5, 150 mM NaCl, 1 mM Na2EDTA, 1 mM EGTA, 1% NP-40, 1% sodium deoxycholate, 0.1% SDS, 2.5 mM β-glycerylphosphate, 1 mM Na4P2O7, 5 mM NaF, 1 mM Na3VO4 and protease inhibitor cocktail from Millipore) on ice for 30 min following by centrifugation at 13000 rpm for 30 min. Protein concentrations were determined and equal amounts of protein were separated by 8–15% sodium dodecyl sulphate-polyacrylamide gel electrophoresis (SDS–PAGE) and transferred to poly(vinylidene difluoride) (PVDF) membranes. Membranes were immunoblotted with specific antibodies overnight at 4 °C and then applied to appropriate horseradish peroxidase-conjugated anti-mouse or anti-rabbit IgG secondary antibodies for 1 h at RT. Signals were detected using an enhanced chemiluminescence (Amersham, Buckinghamshire, UK).

Data set [6] relates to A549 cells. Put plainly: Flow cytometry cell cycle analysis. The format is cell-based, human. Particulars: A549 cells, 0.25, 0.5, 10 μM, 48 h, propidium iodide. As to the method: Briefly, A549 cells were starved with EBM-2 medium overnight and were subsequently replenished with EGM-2 medium with or without 17, 25, and 26 (0.25, 0.5, 10 µM) for 48 h. After being trypsinized and fixed in ice-cold 75% MeOH for 1 h at −20 °C, A549 cells were washed with PBS and resuspended in 0.2 ml DNA extraction buffer (0.2 M Na2HPO4, 0.1 M citric acid; pH 7.8) for 30 min. Then the cells were stained with propidium iodide solution (PI; 100 µg/ml RNase, 80 µg/ml propidium iodide, 0.1% Triton X-100) in PBS. FACScan flow cytometry was utilised to determine cell cycle distribution, and data analysis was performed with CellQuest software (BD Biosciences).

Data set [7] deals with HCT116 cells. The arrangement: method as in PMID 27344487. Particulars: reference compounds, read-out: Antiproliferative activity IC50, HCT116; cited from earlier work.
Data set [8] has as its system A549 cells. The arrangement: method as in PMID 27344487. Particulars: reference compounds, read-out: Antiproliferative activity IC50, A549; cited from earlier work.
Where [9] appears, read: A549 cells, SRB, 48 h, values > 10 μM estimated from best curve fitting, read-out: Antiproliferative activity IC50, A549.
Setting [10] is: range over both cell lines (A549 and HCT116) and both compounds, abstract, read-out: IC50 values against A549 and HCT116 cells.

Like-named read-outs stand apart in the source and are kept apart here. Where only a bound is given, the exact number is not on record here.

T4 sequence (Q92769 whole entry): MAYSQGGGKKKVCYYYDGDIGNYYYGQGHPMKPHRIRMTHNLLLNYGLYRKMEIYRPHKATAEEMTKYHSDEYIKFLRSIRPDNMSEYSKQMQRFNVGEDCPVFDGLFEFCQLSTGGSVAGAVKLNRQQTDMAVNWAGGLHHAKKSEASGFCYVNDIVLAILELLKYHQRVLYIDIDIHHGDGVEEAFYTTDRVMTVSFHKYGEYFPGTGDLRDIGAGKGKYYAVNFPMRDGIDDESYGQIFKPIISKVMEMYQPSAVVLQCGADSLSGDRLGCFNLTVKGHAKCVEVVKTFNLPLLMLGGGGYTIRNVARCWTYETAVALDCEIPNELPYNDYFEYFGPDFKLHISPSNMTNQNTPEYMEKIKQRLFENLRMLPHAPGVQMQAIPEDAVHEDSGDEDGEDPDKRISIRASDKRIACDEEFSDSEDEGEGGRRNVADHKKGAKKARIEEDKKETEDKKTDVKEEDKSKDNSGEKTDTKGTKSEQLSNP
T3 sequence (Q13547 whole entry): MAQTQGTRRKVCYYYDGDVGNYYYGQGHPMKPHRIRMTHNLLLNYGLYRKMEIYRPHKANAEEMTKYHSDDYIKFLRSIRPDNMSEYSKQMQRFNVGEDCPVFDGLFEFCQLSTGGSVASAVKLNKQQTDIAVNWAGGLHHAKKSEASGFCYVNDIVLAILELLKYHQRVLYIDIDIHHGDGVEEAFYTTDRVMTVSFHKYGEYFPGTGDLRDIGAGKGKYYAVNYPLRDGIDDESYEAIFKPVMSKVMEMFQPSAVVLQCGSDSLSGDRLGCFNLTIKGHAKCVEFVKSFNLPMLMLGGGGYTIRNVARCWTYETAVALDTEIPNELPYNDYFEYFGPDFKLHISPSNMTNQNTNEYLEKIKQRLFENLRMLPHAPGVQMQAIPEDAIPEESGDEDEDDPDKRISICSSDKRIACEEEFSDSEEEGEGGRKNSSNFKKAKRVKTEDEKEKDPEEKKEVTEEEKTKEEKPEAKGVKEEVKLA

Consider `O=C(NO)c1ccc(CNc2cccc3cccnc23)cc1` [Compound 13, N-hydroxy-4-((quinolin-8-ylamino)methyl)benzamide], for which, in the data set on HDAC6 [1], the IC50 is 0.29 nM.
`O=C(NO)c1ccc(CNc2cccc3cc(-c4ccccc4)cnc23)cc1` [Compound 18, N-Hydroxy-4-[(3-phenyl-quinolin-8-ylamino)-methyl]-benzamide] gave a melting point of 172.7 to 173.2 °C. The IC50 on HDAC6 [2] amounted to 19.4 nM. Also, on HDAC8, the “Selectivity ratio of HDAC8 over HDAC6” value was “(355)” and the IC50 was 6880 nM. Further, the IC50 in the data set on A549 cells [3] (setting [9]) is 4970 ± 60 nM. For the same compound, on HDAC1, the “Selectivity ratio of HDAC1 over HDAC6” value is recorded as “(273)” and the IC50 was 5.3 µM. Moreover, the IC50 in the data set on HCT116 cells [4] was 4700 ± 380 nM. Also, at HDAC2, the “Selectivity ratio of HDAC2 over HDAC6” value is reported as “(> 515)” and the IC50 was > 10000 nM.
In the case of `O=C(NO)c1ccc(CNc2cccc3cc(-c4cccnc4)cnc23)cc1` [Compound 25, N-Hydroxy-4-(((3-(pyridin-3-yl)quinolin-8-yl)amino)methyl)benzamide], the IC50 on HDAC6 [2] was 4.75 nM; on HDAC8, 1800 nM; in the data set on A549 cells [3] (setting [9]), 1290 ± 410 nM; in the data set with A549 cells [3] (setting [10]) it was 1290 to 2130 nM; on HDAC1, 2.62 µM; in the data set with HCT116 cells [4] it was 1610 ± 220 nM. For the same compound, the IC50 at HDAC2 turned out to be 1310 nM. Also, at HDAC8, the “Selectivity ratio of HDAC8 over HDAC6” value was “(379)”. Besides, the “Caspase 3, 8, and 9 cleavage (Western blot)” value with A549 cells [5] is “dose dependent increases in caspase 3, 8, and 9 cleavage”. For the same compound, in the data set on A549 cells [6], the “Cell cycle distribution, sub G1 population” value is given as “concentration dependent accumulation of A549 cells in sub G1 phase”. For the same compound, the “Selectivity ratio of HDAC1 over HDAC6” value at HDAC1 was “(552)”. The “Selectivity ratio of HDAC2 over HDAC6” value on HDAC2 is “(276)”.
Regarding `O=C(NO)c1ccc(CNc2cccc3cc(-c4ccncc4)cnc23)cc1` [Compound 26, N-Hydroxy-4-(((3-(pyridin-4-yl)quinolin-8-yl)amino)methyl)benzamide], the half-inhibitory concentration (IC50) on HDAC6 [2] is 8.61 nM; on HDAC8, 2350 nM; in the data set on A549 cells [3] (setting [9]) it was 2130 ± 130 nM; with A549 cells [3] (setting [10]), 1290 to 2130 nM; at HDAC1, 5.13 µM; in the data set with HCT116 cells [4] it was 2030 ± 460 nM. For the same compound, the IC50 on HDAC2 worked out at 2890 nM. In addition, at HDAC8, the “Selectivity ratio of HDAC8 over HDAC6” value was “(273)”. The “Caspase 3, 8, and 9 cleavage (Western blot)” value in the data set on A549 cells [5] is “dose dependent increases in caspase 3, 8, and 9 cleavage”. For the same compound, the “Cell cycle distribution, sub G1 population” value in the data set on A549 cells [6] is on record as “concentration dependent accumulation of A549 cells in sub G1 phase”. Moreover, the “Selectivity ratio of HDAC1 over HDAC6” value on HDAC1 is “(596)”. Besides, the “Selectivity ratio of HDAC2 over HDAC6” value on HDAC2 is listed as “(336)”.
`O=C(/C=C/c1cccc(S(=O)(=O)Nc2ccccc2)c1)NO` [PXD101, (E)-N-hydroxy-3–(3-(N-phenylsulfamoyl)phenyl)acrylamide]: the IC50 was 130 ± 10 nM in the data set on HCT116 cells [7] and 780 ± 70 nM in the data set on A549 cells [8].
With `O=C(CCCCCCC(=O)Nc1ccccc1)NO` [SAHA, N^1-hydroxy-N^8-phenyloctanediamide], in the data set on A549 cells [8], the IC50 is 1020 ± 150 nM.
